Patent US6723897B2, “Methods for controlling gibberellin levels” (Monsanto Technology, LLC, priority 1998, dated 2004)
“Also recorded” adds a separate entry of the source.

How the values were obtained:
Assay type in all cases: in vivo, Glycine max
[1] = tested on: constitutively GA-deficient transgenic dwarf soybean line 719; assay: Fifth and sixth field tests, emergence after seed imbibition; conditions: for Total Emerged: 50 seeds imbibed 5 hours
Method: Fresh stock solutions of compounds are prepared for this test. Kaurenoic acid is tested at 0.025 and 0.25 mg/ml; GA3 is tested at 0.025, 0.25, and 0.5 mg/ml; GA3-3-acetate at 0.025 and 0.25 mg/ml; GA5 at 0.025 and 0.25 mg/ml; GA9 at 0.025 and 0.04 mg/ml; and GA12 at 0.025 and 0.25 mg/ml. Stock solutions are prepared in ethanol in 50 ml plastic centrifuge tubes; deionized water is then added to make up the volumes to 30 ml. The final solutions contained 300 μl ethanol in 30 mls. […] Seeds are imbibed for 6 hours, and planted 1″ deep in a single row in moist to wet soil. They are then covered with dry soil, and the row is compacted twice with an all-terrain vehicle. Untreated dry seeds served as controls. The GA solutions are placed on dry ice until reuse the next day.
The next day, additional seeds of constitutive transgenic dwarf line 719 (50 seeds/treatment) are imbibed in the remaining treatment solutions for 5 hours, and planted in moist soil. The rows are compacted twice.

[2] = tested on: constitutively GA-deficient transgenic dwarf soybean line 719; assay: Experiment I greenhouse test, seed imbibition, GA-deficient soybean; design: Observation on Transgenic Line 719: key: −1: treated plants are shorter as compared to untreated plants; 0: treated plants had the same stature as untreated plants; 1: treated plants are slightly elongated as compared to untreated plants; 2: treated plants are moderately elongated as compared to untreated plants; 3: treated plants are highly elongated as compared to untreated plants; 4: treated plants are extremely elongated as compared to untreated plants; conditions: 0.25 mg/ml; for effect in both the constitutive transgenic dwarf and wild-type soybean lines: imbibition, lines 719 and A3237
From the text: Seeds are covered with 0.5″ of vermiculite.

[3] = tested on: constitutively GA-deficient transgenic dwarf soybean line 719; assay: Experiment II second greenhouse test, seed imbibition, GA-deficient soybean; conditions: seeds imbibed 6 hours
Method: (The compounds are tested in Experiment I at only one concentration, i.e., 0.25 mg/ml). Test tubes contained […] of ethanol solution per tube. Final volumes are made up to 30 ml with deionized water. After shaking, the treatment solutions (15 ml each) are transferred to each of two 50 ml test tubes. […] Twenty seeds are used in each treatment. Dry seed, ethanol/water-imbibed seed (1% ethanol in water, v/v), and water-imbibed seeds are included as controls. Seeds are imbibed for 6 hours in the test solutions, then planted in bread pans containing Metromix 350 (The Scotts Company, Marysville, Ohio), and covered with 0.5″ Metro-mix. Covered pans are transferred to the greenhouse and subirrigated. Illumination is at a light intensity of 300-400 μmolm^−2s^−1 photosynthetic photon flux; 16 hours light/8 hours dark. Subsequent waterings are also through sub-irrigation until the test is terminated three weeks later. Observations included the number of dwarf, intermediate, and tall plants; plant height; uniformity of rescue; and any visual effects. Digital photographs are also taken.

[4] = tested on: wild-type A3237 soybean; assay: Hilum treatment of soybean seeds, seedling growth and development, wild-type soybean; design: key to Emergence timing / Hypocotyl length (6 DAP) / 1st internode length (12 DAP) / 3rd internode length (20 DAP): pos: emergence faster/stem segment longer than controls; 0: emergence timing/stem segment length similar to controls; neg: emergence slower/stem segment shorter than controls; conditions: for 1st internode length (12 DAP) / Emergence timing / Hypocotyl length (6 DAP): single rate per compound 8.3-16.5 μg/seed
Method: In the previous experiments, the effect of various GA compounds on transgenic, GA-deficient and wild-type soybean is evaluated by treating seeds with these compounds via imbibition. Several of these compounds are not completely soluble in water, which limited the interpretation of their utility in rescuing GA-deficient dwarf plants. The purpose of this experiment is to reevaluate selected, previously tested compounds, and additional compounds, by introducing them to the seed via the hilum. As shown by the results presented below, direct application of small quantities of GA compounds dissolved in an organic solvent to the hilum is an effective method of treating soybean seeds. As in the previously described experiments, comparison is made between activity on GA-deficient soybean seedlings and normal (wild-type) seedlings. […] soybean seeds are supplied by Asgrow Seed Company (Des Moines, Iowa). Seed of GA-deficient transgenic soybean line 719 is created by transformation of […] soybean with pMON29801 (FMV/antisense CPScc). Fifth generation seed (R5) is used for these experiments. […] When multiple droplets are applied, each 1 μl droplet is allowed to dry before subsequent droplets are added. Ethanol minus compound is used a treatment control. […] (29° C.) and 75° F. (24° C.), respectively. Emergence timing is measured by counting the number of emerged seedlings at different times after planting. Emergence is defined as the presence of cotyledons raised to soil level or above. […] To assess the ability of a seed treatment to deliver biological activity beyond the first internode, measurements are taken on selected treatments after prolonged growth and development.

Row | SMILES | Visual Observations on Transgenic Line 719 ([1]; 0.025 mg/ml) | Total Emerged ([1]; 0.025 mg/ml) | effect in both the constitutive transgenic dwarf and wild-type soybean lines [2] | Observation on Transgenic Line 719 ([2]; seeds imbibed 5 hours) | Lowest rate where biological activity is observed, 1st internode length (10 DAP) ([4]; rate response) [μg/seed] | Lowest rate where biological activity is observed, emergence timing ([4]; rate response) [μg/seed] | Lowest rate where biological activity is observed, hypocotyl length (5 DAP) ([4]; rate response) [μg/seed] | 1st internode length (12 DAP) [4] | Emergence timing [4] | Hypocotyl length (6 DAP) [4] | Visual Observations on Transgenic Line 719 ([1]; 0.25 mg/ml) | Total Emerged ([1]; 0.25 mg/ml) | Significant Visual Observations on Line 719 ([3]; 0.0025 mg/ml) | Significant Visual Observations on Line 719 ([3]; 0.025 mg/ml) | Significant Visual Observations on Line 719 ([3]; 0.25 mg/ml) | also measured
1 | C=C1C[C@]23C[C@H]1CC[C@H]2[C@@]12CCC[C@@](C)(C(=O)O1)[C@H]2[C@@H]3C(=O)O [GA9] | good emergence with good rescue; also recorded: No dwarfs in plots | 24 | excessive elongation | 3 | 1 | 0.1 | 1 | 0 | pos | pos | – | – | – | – | – | Total Emerged ([1]; 0.04 mg/ml): 11; Significant Visual Observations on Line 719 ([3]; 0.00125 mg/ml): Poor rescue; Significant Visual Observations on Line 719 ([3]; 0.0125 mg/ml): Good rescue of dwarfs; Significant Visual Observations on Line 719 ([3]; 0.125 mg/ml): good rescue, with no overelongation
2 | C=C1C[C@@]23CC[C@H]4[C@@](C)(CCC[C@@]4(C)C(=O)O)[C@@H]2CC[C@@H]1C3 [kaurenoic acid] | Poor rescue | 20 | rescue (elongated hypocotyls) with very little elongation | 1 | – | – | – | 0 | 0 | 0 | Poor stand | 10 | Poor rescue | Poor rescue | Poor rescue | Observation on Transgenic Line 719, remark in words ([2]; seeds imbibed 5 hours): some rescue
3 | C=C1C[C@]23C[C@@]1(O)CC[C@H]2[C@@]12C=C[C@H](O)[C@@](C)(C(=O)O1)[C@H]2[C@@H]3C(=O)O [GA3, gibberellic acid] | – | 15 | excessive elongation | 3 | 1 | 0.1 | 0.1 | 0 | pos | pos | – | 9 | Excessive elongation | Excessive elongation | Excessive elongation | Total Emerged ([1]; 0.5 mg/ml): 1
4 | C=C1C[C@]23C[C@H]1CC[C@H]2[C@]1(C)CCC[C@@](C)(C(=O)O)[C@H]1[C@@H]3C(=O)O [GA12] | – | 28 | rescue (elongated hypocotyls) with very little elongation | 1 | – | – | – | 0 | neg | neg | – | 9 | Poor rescue | Incomplete rescue | good rescue, with no overelongation | –
5 | C=C1C[C@]23C[C@@]1(O)CC[C@H]2[C@@]12CC=C[C@@](C)(C(=O)O1)[C@H]2[C@@H]3C(=O)O [GA5] | good emergence with good rescue | 21 | excessive elongation | 4 | 1 | 0.1 | 1 | pos | pos | pos | – | 3 | Good rescue of dwarfs | good rescue, with no overelongation | Excessive elongation | 3rd internode length (20 DAP) ([4]; rate 9.7 μg/seed): pos; Lowest rate where biological activity is observed, 3rd internode length (20 DAP) ([4]; rate response): 1 μg/seed
6 | C=C1C[C@]23C[C@@]1(O)CC[C@H]2[C@@]12C=C[C@H](OC(C)=O)[C@@](C)(C(=O)O1)[C@H]2[C@@H]3C(=O)O [GA3-3-acetate] | – | 2 | excessive elongation | 3 | – | – | – | 0 | pos | pos | Overelongation | 1 | good rescue, with no overelongation | Poor rescue | Excessive elongation | –
